# Data reported in US10493046B2, “5-hydroxytryptamine 1B receptor-stimulating agent for use as a promoter of satellite cells self-renewal and/or differentiation” (INSTITUT PASTEUR, priority 2015, dated 2019).
# Tests used:
# satellite cells [1] = experiment: Satellite cell (SC) number in tibialis anterior of treated mice (histological count or FACS cytometry); type: in vivo, mouse; conditions: GR127935 in osmotic pump together with vortioxetine I.P 12 days; Tg:Pax7nGFP mice
# Procedure: For satellite cell counting, only the tibialis anterior muscle was dissected and digested as described earlier, and the totality of the tube was analysed to assess the number of satellite cells per muscle. FACS analysis was done using a FACSasia (Beckman). All analyses and quantitation were performed using Summit v4.3 software from DakoCytomation and FloJo software. […]
# In order to count the number of satellite cells, the tibialis anterior (TA) of Tg:Pax7nGFP mice were digested and analysed by FACS in placebo and vortioxetine (12 days, 20 mg/Kg) treated mice. […] After 3 weeks of vortioxetine treatment, the number of satellite cells was even higher (9351 satellite cells±706, p=0.0079) but no statistically significant differences were found between 12 days and 3 weeks of treatment (p=0.15).
# primary human myoblasts = experiment: Primary human myoblasts plated in plasma from treated mice; type: cell-based; conditions: plasma from fluoxetine-treated mice
# HUVEC = experiment: In vitro HUVEC assay on cytodex beads in plasma of treated mice; type: cell-based, human; conditions: plasma from mice treated P.O 6 weeks; 4 days post plating
# Procedure: C57Bl/6 mice were treated P.O for 6 weeks and plasma was extracted from blood. HUVEC cells were then plated on cytodex beads and cultured in either of the plasma. The growth of HUVEC incubated with plasma coming from treated animals was faster 4 days post plating (p≤0.0001) (FIGS. 2m-o).
# Mdx mice = experiment: Grip strength test in mdx mice; type: in vivo, mouse; conditions: fluoxetine treated mdx mice, 6 weeks; 4 limbs
# Procedure: The grip strength test is a non-invasive method designed to evaluate mouse muscle force in vivo. A grip meter (Bio-GT3, BIOSEB), attached to a force transducer, measures the peak force generated. […] Five trials were conducted and, before statistical analysis, a mean value was calculated for each mouse using the tree median data. Results are expressed as the result of tree peak forces (in g), normalized to the body weight (in g).
# This was confirmed on soleus muscle (data not shown).
# satellite cells [2] = experiment: BrdU cell division of satellite cells during treatment; type: in vivo, mouse; conditions: BrdU during the entire per os treatment
# From the text: (a) Schematic representation of fluoxetine delivery and sacrifice time points. (b) Number of satellite cells per mm^2 on section. […] The arrows point to the satellite cells. […] (k-l) Representative image of a vessel (arrows) in the Matrigel plug detected by HE staining in placebo (k) or fluoxetine (l) treated mice. (m) Vessel length 4 days post-plating of Cytodex® beads covered with HUVEC. (n) Representative image of a Cytodex® bead 4 days-post plating in presence of placebo plasma. […] Using immunostainings and FACS cell sorting in Figures (p) to (v): (p) Number of Pax7GFP expressing cells per digested TA (expressed as an absolute number) counted by FACS. (q) Representative FACS profile of digested TA of TgPax7nGFP mouse. […] TA muscle was digested and cells were isolated by FACS, spined on a slide and immuno-stained against BrdU. (s) Percentage of BrdU+ cells in Tg:Pax7nGFP mice (n=3 per time point). […] Data are represented as mean±s.d. *P<0.05; **P<0.01; ***P<0.001. Scale bar represents 100 μm. For Figures (p) to (v): n=7 mice used per condition, except for BrdU experiments n=3 per time point. Data are represented as mean±s.d. **P<0.01. Scale bar represents 100 μm.
# CD31 expressing cells = experiment: Ex vivo Matrigel angiogenesis assay (subcutaneous plugs); type: in vivo, mouse; conditions: C57Bl/6 treated P.O for 6 weeks
# From the text: To further confirm the above results, an ex vivo Matrigel angiogenesis assay was used. To do so, a cold Matrigel was introduced subcutaneously, which solidifies and allows the penetration by host cells and the formation of new blood vessels in C57Bl/6 treated P.O for 6 weeks.
Structure (SMILES),Number of SC (satellite cells [1]) [SC per TA],Differentiation 4 days post-plating vs placebo plasma (primary human myoblasts),Self-renewal of the cells 14 days post-plating vs placebo plasma (primary human myoblasts),Growth of HUVEC vs placebo plasma (HUVEC),Total muscle force increase (Mdx mice) [%],SC population dividing (BrdU) (satellite cells [2]) [%],Number of CD31 expressing cells in Matrigel plugs (CD31 expressing cells) [CD31+ cells per mm^2]
COc1ccc(NC(=O)c2ccc(-c3ccc(-c4noc(C)n4)cc3C)cc2)cc1N1CCN(C)CC1 [GR127935],5540±411,–,–,–,–,–,–
CNCCC(Oc1ccc(C(F)(F)F)cc1)c1ccccc1 (stereo not shown) [fluoxetine],–,faster differentiation,higher self-renewal,faster,56,90,72.9±22.6
